Measured values from article PMC2723721 (Bioorganic & medicinal chemistry, 2009).

Target: p47phox (Homo sapiens, UniProt P14598)
Assay: ELISA: his-p47phox binding to immobilized biotin-p22phox peptide with […] IAA
Type: biochemical

p47phox, sequence (P13498 2-195): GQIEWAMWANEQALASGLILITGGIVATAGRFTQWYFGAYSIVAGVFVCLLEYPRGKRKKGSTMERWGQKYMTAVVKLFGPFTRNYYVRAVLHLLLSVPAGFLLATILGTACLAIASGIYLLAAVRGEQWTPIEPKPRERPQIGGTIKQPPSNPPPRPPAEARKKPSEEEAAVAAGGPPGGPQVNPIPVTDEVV
p47phox, sequence (P14598 whole entry): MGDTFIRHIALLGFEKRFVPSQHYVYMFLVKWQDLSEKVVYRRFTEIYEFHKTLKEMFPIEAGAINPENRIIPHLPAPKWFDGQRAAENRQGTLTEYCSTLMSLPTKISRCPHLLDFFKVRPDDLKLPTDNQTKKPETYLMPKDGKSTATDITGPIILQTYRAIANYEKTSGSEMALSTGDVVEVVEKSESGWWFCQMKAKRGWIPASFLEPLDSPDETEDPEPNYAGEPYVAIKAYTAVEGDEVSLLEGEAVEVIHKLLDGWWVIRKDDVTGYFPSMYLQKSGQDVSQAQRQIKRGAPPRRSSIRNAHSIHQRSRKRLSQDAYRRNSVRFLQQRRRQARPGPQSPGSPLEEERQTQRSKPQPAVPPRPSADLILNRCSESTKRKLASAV

In the case of `NC(=O)CI` [IAA, iodoacetamide], the “% drop in bound p47phox at 1 μM” value is reported as > 50 % drop in bound p47phox at 1 μM.
